For this assay, the target named is T1, human TLR7 (Homo sapiens, UniProt Q9NYK1).
T1 construct: host or cells: HEK293 (HEK-Blue hTLR7)
T1 sequence (Q9NYK1 27-1049): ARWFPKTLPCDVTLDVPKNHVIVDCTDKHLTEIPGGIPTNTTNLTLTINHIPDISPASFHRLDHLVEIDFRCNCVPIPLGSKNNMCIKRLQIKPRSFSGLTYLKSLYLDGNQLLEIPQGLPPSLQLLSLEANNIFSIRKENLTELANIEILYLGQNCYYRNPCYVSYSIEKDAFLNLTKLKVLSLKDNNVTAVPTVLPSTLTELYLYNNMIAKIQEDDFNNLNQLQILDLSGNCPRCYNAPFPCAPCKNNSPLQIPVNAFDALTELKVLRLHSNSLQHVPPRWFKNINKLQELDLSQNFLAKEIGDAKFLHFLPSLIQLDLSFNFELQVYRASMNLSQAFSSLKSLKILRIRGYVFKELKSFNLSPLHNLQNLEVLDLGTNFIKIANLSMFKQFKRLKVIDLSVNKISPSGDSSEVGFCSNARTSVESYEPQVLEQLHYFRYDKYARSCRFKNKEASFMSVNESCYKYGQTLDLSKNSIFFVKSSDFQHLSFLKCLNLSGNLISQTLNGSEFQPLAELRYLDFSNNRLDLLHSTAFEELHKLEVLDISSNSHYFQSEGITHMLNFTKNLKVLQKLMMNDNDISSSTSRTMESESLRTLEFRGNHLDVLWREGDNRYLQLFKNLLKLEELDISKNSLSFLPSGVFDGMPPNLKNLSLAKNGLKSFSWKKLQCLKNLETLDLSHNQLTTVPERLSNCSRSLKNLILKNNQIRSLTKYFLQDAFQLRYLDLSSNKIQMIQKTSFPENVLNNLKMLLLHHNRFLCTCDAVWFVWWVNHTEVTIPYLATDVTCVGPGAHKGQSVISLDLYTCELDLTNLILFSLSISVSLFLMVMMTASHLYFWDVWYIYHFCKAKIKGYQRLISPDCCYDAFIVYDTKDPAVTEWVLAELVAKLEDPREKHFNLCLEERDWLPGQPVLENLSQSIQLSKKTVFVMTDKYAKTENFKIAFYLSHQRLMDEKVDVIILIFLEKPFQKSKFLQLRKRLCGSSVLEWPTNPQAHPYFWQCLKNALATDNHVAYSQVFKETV
In words: HEK293-Blue-hTLR-7 cells assay. The assay is classed as cell-based. As to conditions: HEK293-Blue-hTLR7 cells, R848 stimulation, 20 hrs, SEAP reporter; read-out: HEK/hTLR7 IC50. An excerpt:
A stable HEK293-Blue-hTLR-7 cell line was purchased from InvivoGen (Cat.#: hkb-htlr7, San Diego, California, USA). These cells were originally designed for studying the stimulation of human TLR7 by monitoring the activation of NF-κB. A SEAP (secreted embryonic alkaline phosphatase) reporter gene was placed under the control of the IFN-β minimal promoter fused to five NF-κB and AP-1-binding sites. The SEAP was induced by activating NF-κB and AP-1 via stimulating HEK-Blue hTLR7 cells with TLR7 ligands. Therefore the reporter expression was declined by TLR7 antagonist under the stimulation of a ligand, such as R848 (Resiquimod), for incubation of 20 hrs. The cell culture supernatant SEAP reporter activity was determined using QUANTI-Blue™ kit (Cat.#: rep-qb1, Invivogen, San Diego, Ca, USA) at a wavelength of 640 nm, a detection medium that turns purple or blue in the presence of alkaline phosphatase.
HEK293-Blue-hTLR7 cells were incubated at a density of 250,000~450,000 cells/mL in a volume of 170 µL in a 96-well plate in Dulbecco’s Modified Eagle’s medium (DMEM) containing 4.5 g/L glucose, 50 U/mL penicillin, […], […], 2 mM L-glutamine, 10% (v/v) heat-inactivated fetal bovine serum with addition of 20 µL test compound in a serial dilution in the presence of final DMSO at 1% and 10 µL of 20uM R848 in above DMEM, perform incubation under 37° C. in a CO2 incubator for 20 hrs. Then 20 µL of the supernatant from each well was incubated with 180 µL Quanti-blue substrate solution at 37° C. for 2 hrs and the absorbance was read at 620 \~655 nm using a spectrophotometer. The signaling pathway that TLR7 activation leads to downstream NF-κB activation has been widely accepted, and therefore similar reporter assay was modified for evaluating TLR7 antagonist.
As to `Cc1cc(-c2ccc(N3CCN(Cc4cnc(N5CCNCC5)cn4)CC3)nc2C(C)C)cn(C)c1=O` [Example 8, 5-[2-isopropyl-6-[4-[(5-piperazin-1-ylpyrazin-2-yl)methyl]piperazin-1-yl]-3-pyridyl]-1,3-dimethyl-pyridin-2-one], the IC50 was determined as 5 nM.

As to `CCc1nc(N2CCN3CCN(c4cnc(N5CC6(CNCCO6)C5)nc4)CC3C2)ccc1-c1cc(C)c(=O)n(C)c1` (stereo not shown) [Example 19, 5-[2-ethyl-6-[2-[2-(5-oxa-2,8-diazaspiro[3.5]nonan-2-yl)pyrimidin-5-yl]-3,4,6,7,9,9a-hexahydro-1H-pyrazino[1,2-a]pyrazin-8-yl]-3-pyridyl]-1,3-dimethyl-pyridin-2-one], the IC50 was 3 nM. The result for `Cc1cc(-c2ccc(N3CCN(c4ccc5c(n4)CCNC5)CC3)nc2C(C)C)cn(C)c1=O` [Example 15, 5-[2-isopropyl-6-[4-(5,6,7,8-tetrahydro-1,6-naphthyridin-2-yl)piperazin-1-yl]-3-pyridyl]-1,3-dimethyl-pyridin-2-one] reads 10 nM; that for `CCc1nc(N2CCN(Cc3ccc(N4CC5(CNCCO5)C4)nc3)CC2)ccc1-c1cc(C)c(=O)n(C)c1` [Example 2, 5-[2-ethyl-6-[4-[[6-(5-oxa-2,8-diazaspiro[3.5]nonan-2-yl)-3 pyridyl]methyl]piperazin-1-yl]-3-pyridyl]-1,3-dimethyl-pyridin-2-one], 10 nM; that for `Cc1cc(-c2ccc(N3CCN(Cc4cnc(N5CC6(CNCCO6)C5)nc4)CC3)nc2C(C)C)cn(C)c1=O` [Example 6, 5-[2-isopropyl-6-[4-[[2-(5-oxa-2,8-diazaspiro[3.5]nonan-2-yl)pyrimidin-5-yl]methyl]piperazin-1-yl]-3-pyridyl]-1,3-dimethyl-pyridin-2-one], 5 nM.

As for `CCc1nc(N2CCN(Cc3cnc(N4CC(C)(N)C4)nc3)CC2)ccc1-c1cc(C)c(=O)n(C)c1` [Example 3, 5-[6-[4-[[2-(3-amino-3-methyl-azetidin-1-yl)pyrimidin-5-yl]methyl]piperazin-1-yl]-2-ethyl-3-pyridyl]-1,3-dimethyl-pyridin-2-one], the IC50 was 14 nM. The result for `CCc1nc(N2CCN(Cc3ccc(N4CCNCC4)cc3)CC2)ccc1-c1cc(C)c(=O)n(C)c1` [Example 5, 5-[2-ethyl-6-[4-[(4-piperazin-1-ylphenyl)methyl]piperazin-1-yl]-3-pyridyl]-1,3-dimethyl-pyridin-2-one] reads 6 nM; that for `Cc1cc(-c2ccc(N3CCN(Cc4ncc(N5CCNCC5)cn4)CC3)nc2C(C)C)cn(C)c1=O` [Example 12, 5-[2-isopropyl-6-[4-[(5-piperazin-1-ylpyrimidin-2-yl)methyl]piperazin-1-yl]-3-pyridyl]-1,3-dimethyl-pyridin-2-one], 8 nM; that for `Cc1cc(-c2ccc(N3CCN(Cc4ccc(N5CCNCC5)cc4)CC3)nc2C(F)F)cn(C)c1=O` [Example 17, 5-[2-(difluoromethyl)-6-[4-[(4-piperazin-1-ylphenyl)methyl]piperazin-1-yl]-3-pyridyl]-1,3-dimethyl-pyridin-2-one], 33 nM.

Take `CCc1nc(N2CCN(Cc3cnc(N4CCOC[C@@H](N)C4)nc3)CC2)ccc1-c1cc(C)c(=O)n(C)c1` [Example 4, 5-[6-[4-[[2-[(6S)-6-amino-1,4-oxazepan-4-yl]pyrimidin-5-yl]methyl]piperazin-1-yl]-2-ethyl-3-pyridyl]-1,3-dimethyl-pyridin-2-one]: the IC50 is 24 nM.

Consider `Cc1cc(-c2ccc(N3CCN(Cc4ccc(N5CCNCC5)cn4)CC3)nc2C(C)C)cn(C)c1=O` [Example 7, 5-[2-isopropyl-6-[4-[(5-piperazin-1-yl-2-pyridyl)methyl]piperazin-1-yl]-3-pyridyl]-1,3-dimethyl-pyridin-2-one], for which the IC50 was 5 nM. The result for `Cc1cc(-c2ccc(N3CCC(N4CCNCC4)CC3)nc2C(C)C)cn(C)c1=O` [Example 18, 5-[2-isopropyl-6-(4-piperazin-1-yl-1-piperidyl)-3-pyridyl]-1,3-dimethyl-pyridin-2-one] reads 5 nM; that for `CCc1nc(N2CCN(Cc3cnc(N4CC5(CNCCO5)C4)nc3)CC2)ccc1-c1cc(C)c(=O)n(C)c1` [Example 1, 5-[2-ethyl-6-[4-[[2-(5-oxa-2,8-diazaspiro[3.5]nonan-2-yl)pyrimidin-5-yl]methyl]piperazin-1-yl]-3-pyridyl]-1,3-dimethyl-pyridin-2-one], 9 nM. As for `Cc1cc(-c2ccc(N3CCN(Cc4cccc(N5CCNCC5)c4)CC3)nc2C(C)C)cn(C)c1=O` [Example 14, 5-[2-isopropyl-6-[4-[(3-piperazin-1-ylphenyl)methyl]piperazin-1-yl]-3-pyridyl]-1,3-dimethyl-pyridin-2-one], the figure is 18 nM; as for `Cc1cc(-c2ccc(N3CCN4CCN(c5ccc(N6CCNCC6)nc5)CC4C3)nc2C(C)C)cn(C)c1=O` (stereo not shown) [Example 16, 5-[2-isopropyl-6-[8-(6-piperazin-1-yl-3-pyridyl)-3,4,6,7,9,9a-hexahydro-1H-pyrazino[1,2-a]pyrazin-2-yl]-3-pyridyl]-1,3-dimethyl-pyridin-2-one], 2 nM; as for `Cc1cc(-c2ccc(N3CCN(Cc4cnc(N5CCNCC5)nc4)CC3)nc2C(C)C)cn(C)c1=O` [Example 9, 5-[2-isopropyl-6-[4-[(2-piperazin-1-ylpyrimidin-5-yl)methyl]piperazin-1-yl]-3-pyridyl]-1,3-dimethyl-pyridin-2-one], 7 nM. As for `Cc1cc(-c2ccc(N3CCN(Cc4ccc(N5CCNCC5)cc4)CC3)nc2C(C)C)cn(C)c1=O` [Example 13, 5-[2-isopropyl-6-[4-[(4-piperazin-1-ylphenyl)methyl]piperazin-1-yl]-3-pyridyl]-1,3-dimethyl-pyridin-2-one], the figure is 12 nM; as for `Cc1cc(-c2ccc(N3CCN(Cc4ccc(N5CCNCC5)nc4)CC3)nc2C(C)C)cn(C)c1=O` [Example 11, 5-[2-isopropyl-6-[4-[(6-piperazin-1-yl-3-pyridyl)methyl]piperazin-1-yl]-3-pyridyl]-1,3-dimethyl-pyridin-2-one], 8 nM; as for `Cc1cc(-c2ccc(N3CCN(Cc4cnc(N5CC(C)(N)C5)nc4)CC3)nc2C(C)C)cn(C)c1=O` [Example 10, 5-[6-[4-[[2-(3-amino-3-methyl-azetidin-1-yl)pyrimidin-5-yl]methyl]piperazin-1-yl]-2-isopropyl-3-pyridyl]-1,3-dimethyl-pyridin-2-one], 7 nM.

Source of the values: US20230295109A1, “PYRIDINONE COMPOUNDS FOR THE TREATMENT OF AUTOIMMUNE DISEASE” (F. Hoffmann-La Roche AG, priority 2020, published 2023).
